Results on 44 compounds are retold here after PubChem BioAssay (NCI).

Several values for one entry are separate records, joined by “and”; a condition that tells them apart may be missing. Identical values can stand only once.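 Values below derive from 48-hour exposures of cells grown in 96-well plates, with endpoints linearly interpolated between the two concentrations bracketing the appropriate inhibition level. GI50 marks 50% less growth. TGI is the concentration that stops growth completely.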 Bounds are passed on as bounds.

For this test, the system named is MDA-MB-468 breast. Description: DTP human tumour cell line panel, 48 h.
One may read the GI50 as the concentration at which growth is held to half of that of the control. A word on the TGI: it is the concentration giving total growth inhibition. A higher TGI goes with lower sensitivity of the cells. In the case of `CN(C)C/C=C/C(=O)Nc1ccc(C(=O)N2CCC[C@@H](Nc3ncc(Cl)c(-c4c[nH]c5ccccc45)n3)C2)cc1`, the GI50 is 0.0249 µM and the TGI is 0.0722 µM.

Turning to `COc1cc2nnn3c4ncccc4c(N=O)c3c2cc1OC`, the GI50 was 0.156 µM and the concentration for total growth inhibition (TGI) was 1.09 µM.

For the compound `O=C(Nc1ccccc1O)c1ccc(CNC(=O)c2ccsc2Nc2ccnc(C(F)(F)F)c2)cc1`, the GI50 is 1.43 µM and the TGI amounted to 3.53 µM.

`CCCCCCOc1ccc(C(=N)N(CCCC)CCCC)c2ccccc12`: the GI50 is 0.59 µM and the TGI was 2.01 µM.

As to `CN(C)CCCC1(c2ccc(F)cc2)OCc2cc(-c3cncc4ccccc34)ccc21` (stereo not given), the GI50 is 1.55 µM and the TGI was 3.19 µM.

Turning to `CCCn1cnc2c(SCc3ccccc3)nc(N)nc21`, the GI50 was 23.6 µM and the TGI is over 100 µM.

In the case of `COC(=O)[C@H](Cc1ccccc1)NC(=O)c1csc([C@@H](C[C@H](C(C)C)N(C)C(=O)[C@@H](NC(=O)[C@H]2CCCN2C)C2CC2)OC(C)=O)n1`, the GI50 was 0.153 µM and the TGI was over 33.3 µM.

Turning to `O=C(Cc1ccc(/C=C/C(=O)c2ncc[nH]2)cc1)Nc1ccc(C(F)(F)F)cc1`, the GI50 is 1.77 µM and the TGI is 6.84 µM.

On to `Cn1cc(CO)c2ccccc21`, for which the GI50 was 10.5 µM and the concentration for total growth inhibition (TGI) was 48.7 µM.

Consider `COc1ccc(NC(=O)c2sc3nc4c(cc3c2N)CCCC4)cc1`, for which the GI50 is 0.481 µM and the TGI was 96.4 µM.

As for `C[C@@H]1C/C=C\C(=O)O[C@H](/C=C/C#C/C=C/C(C)(C)[C@@H](O)c2cccc(O)c2Br)[C@@H](C)/C=C/[C@H](C)C[C@H](OC(N)=O)C1`, the GI50 is 0.0611 µM and the TGI stood at 17.8 µM.

As to `Cc1n(Cc2ccc3ccccc3c2)c(Cl)c(Cl)[n+]1Cc1ccc2ccccc2c1`, the GI50 was 1.09 µM and the TGI turned out to be 2.92 µM.

For the compound `CCO/C=N/C1=C(C#N)C(c2ccc(Cl)cc2)c2sc3c(CC)cccc3c2O1` (stereo not given), the GI50 was 0.911 µM and the TGI amounted to 11 µM.

For the compound `COc1ccc(-c2cc(/C=C/C(=O)c3cc(OC)c(OC)c(OC)c3)[nH]n2)cc1OC`, the GI50 is 1.33 µM and the TGI came to 3.27 µM.

The compound `CC[C@H](C)[C@H](NC(=O)[C@H]1CCCCN1C)C(=O)N(C)[C@H](C[C@@H](OC(C)=O)c1nc(C(=O)N[C@@H](Cc2ccccc2)C[C@H](C)C(=O)OC)cs1)C(C)C` gave a TGI of 4.45 µM.

Consider `CCc1cccc(CC)c1/C=C/c1cncc(C(=O)NC)c1`, for which the GI50 was 4.03 µM and the TGI came out at 20.6 µM.

Consider `O=C(/C=C/c1cn(-c2ccccc2)nc1-c1ccc([N+](=O)[O-])cc1)c1ccc(Cl)cc1`, for which the GI50 is 2.91 µM and the concentration for total growth inhibition (TGI) is over 100 µM.

For the compound `CCCNC(=O)CCC(C)[C@H]1CCC2C3C(C[C@H](OC(C)=O)[C@@]21C)[C@@]1(C)CCC2(C[C@H]1C[C@H]3OC(C)=O)OOC1(CCCCC1)OO2` (stereo not given in full), the GI50 was 1.89 µM and the TGI was found to be 6.77 µM.

Turning to `CC(=O)Oc1ccc(C2(c3ccc(OC(C)=O)cc3)C(=O)Nc3ccccc32)cc1`, the concentration for 50% growth inhibition (GI50) is 0.0682 µM and 0.0738 µM; the TGI was 40.8 µM and 91 µM.

In the case of `NC(=O)c1cc(I)ccc1NC(=O)COc1ccccc1`, the GI50 was 0.311 µM.

On to `C1=C2CNCC3=Cc4ccc5ccccc5c4OC23Oc2c1ccc1ccccc21`, for which the GI50 was 2.06 µM and the TGI stood at 7.55 µM.

With `O=C1C=C(N2CCN(c3ccccn3)CC2)C(=O)c2c(O)ccc(O)c21`, the GI50 is 2.75 µM.

For `Cc1cc(NC(=O)NC(=O)c2ccccc2N(C)C)ccc1Oc1ncc(Br)cn1`, the GI50 was 0.49 µM and the TGI was over 100 µM.

`COc1ccc2[nH]c(-c3ccccc3)cc2c1`: the GI50 is 47 µM and the TGI is over 100 µM.

Take `COc1ccc2cc(-c3c(-c4ccncc4)nc(-c4ccc(S(C)=O)cc4C)n3C)ccc2c1` (stereo not given): the GI50 was 9.07 µM and the TGI is over 25 µM.

Regarding `Oc1[nH]c2ccccc2c1/C=c1/cc2c(c(-c3ccc(C(F)(F)F)cc3)n1)=Nc1ccccc1-2`, the GI50 is 3.82 µM and the TGI worked out at 16.1 µM.

As to `Fc1c[c-]c(-c2ccccn2)c(F)c1.[CH3-].[Pt+2].c1ccc(P(C[PH+](c2ccccc2)c2ccccc2)c2ccccc2)cc1`, the GI50 was 0.325 µM and the TGI was determined as 0.946 µM.

Take `Nc1ncnc2c1c(-c1ccc(Oc3ccccc3)cc1)nn2C[C@@H]1SSC[C@@H]1O`: the GI50 was 0.4 µM and the total growth inhibition concentration (TGI) is 2.19 µM.

In the case of `COc1ccccc1/C=C\C(=O)c1ccccc1`, the GI50 is 3.97 µM and the TGI was found to be 19.1 µM.

With `O=C(CCN1CCCC1)Nc1ccc2c(Nc3ccccc3)c3ccccc3nc2c1`, the 50% growth inhibitory concentration (GI50) was 0.182 µM and the TGI worked out at 1.6 µM.

As to `O=c1oc2ccc(F)cc2c(=O)n1-c1ccc(Br)cc1F`, the GI50 is 1.53 µM and the total growth inhibition concentration (TGI) amounted to 5.49 µM.

`CCNC(=O)Oc1ccc(/C(=C(/C)c2ccc(OC)cc2)c2ccc(OCCN3CCCCCC3)cc2)cc1`: the GI50 is 2.05 µM and the TGI stood at 8.09 µM.

Take `COc1cc2cc(Oc3ccc(NC(=O)c4cccc5c4OCCO5)cc3)c(C)nc2cc1OC`: the GI50 was 2.93 µM and the TGI worked out at 48.7 µM.

Regarding `Nc1ccn([C@@H]2C(F)=C(CO)[C@@H](O)[C@H]2O)c(=O)n1`, the GI50 was 31.2 µM and the TGI is over 100 µM.

`CCC(=O)c1cc([N+](=O)[O-])c(Br)s1`: the GI50 was 1.92 µM and the TGI is 3.69 µM.

In the case of `COc1cc(-n2cc(-c3cc(O)c(C/C=C(\C)CCC=C(C)C)c(O)c3)nn2)cc2c1O[C@]1(C)CC[C@@H](O)C(C)(C)[C@H]1C2`, the GI50 is 0.88 µM and the TGI came to 4.89 µM.

As for `COc1ccc(C(=O)C[C@]2(O)C(=O)Nc3c(Cl)ccc(Cl)c32)cc1`, the GI50 is 0.395 µM and the TGI was over 67.1 µM.

Regarding `c1ccc(CC(NCCNC(Cc2ccccc2)c2ccccc2)c2ccccc2)cc1` (stereo not given), the GI50 was 0.255 µM and the concentration for total growth inhibition (TGI) amounted to 0.745 µM.

On to `CN(C)C(=O)SC1=C(c2c(Cl)cccc2Cl)C(=O)c2ccccc21`, for which the GI50 was 1.97 µM and the TGI is 4.15 µM.

For the compound `CN(C)CCCN1c2ccccc2Sc2ccc(Cl)cc21`, the GI50 is 1.67 µM and 1.81 µM; the total growth inhibition concentration (TGI) is 3.54 µM and 4.62 µM.

For `Cc1cc(=O)oc2cc(OCCn3c(C)nn(-c4ccc(Cl)cc4)c3=O)ccc12`, the GI50 was 2.69 µM and the TGI is 57.6 µM.

Take `O=C(Nc1ccc(Cl)cc1)Nc1ccccc1CNc1nc(Nc2ccc(OCCN3CCCC3)cc2)ncc1Cl`: the GI50 was 0.998 µM and the TGI was found to be 2.28 µM.

For the compound `Cn1cnc([N+](=O)[O-])c1Sc1nc(N)nc2nc[nH]c12`, the GI50 is 0.884 µM and the TGI turned out to be 6.11 µM.

Consider `COc1ccc(-c2nc3c(c(=O)n2C(C)=O)C(c2ccc(Cl)cc2)c2sc4c(Cl)cccc4c2O3)cc1` (stereo not given), for which the concentration for 50% growth inhibition (GI50) was 0.234 µM and the concentration for total growth inhibition (TGI) is 0.571 µM.
